Measurements reported in patent publication EP0286491B1, “Antimalarial aminoquinoline derivatives, method for their preparation and pharmaceutical composition containing them” (LA REGION WALLONNE, priority 1987, dated 1988).
“Also recorded” adds a separate entry of the source.

What was measured:
[1] = tested on: P. berghei berghei (ANKA); experiment: Causal prophylactic activity in the rodent malaria model (sporozoite-infected mice, single i.v. treatment 3 h after inoculation); assay type: in vivo, souris Swiss OF1; settings: for ED50 / CPD₅₀ (dose prophylactique causale guérissant 50 % des animaux infectés): dose as mg Pq diphosphate/kg; for ED50: read-out: CPD₅₀ (dose prophylactique causale guérissant 50 % des animaux infectés); for index thérapeutique (LD₅₀/CPD₅₀): ratio LD₅₀/CPD₅₀; for index Pq (CPD₅₀ de la Pq/CPD₅₀ du composé): ratio of CPD₅₀ of Pq to CPD₅₀ of the derivative; for activité thérapeutique compared with Pq: qualitative comparison with primaquine
From the text: Le modèle de la malaria du rongeur, Plasmodium berghei-Anopheles stephensi-souris, mis au point par MOST, H., HERMAN, R. & SCHOENFELD, C. (1967) Am. J. Trop. Med. Hyg. 16, 572-575, permet de déterminer l'activité prophylactique causale (schizonticide tissulaire) de nouveaux composés thérapeutiques. La procédure utilisée est dérivée de celle de MOST, H. & MONTUORI, W.A. (1975) Am. J. Trop. Med. Hyg. 24, 179-182. Il s'agit du système P. berghei berghei (ANKA)- Anopheles stephensi-souris Swiss OF1. La souche ANKA de P. b. berghei est entretenue cycliquement sur Anopheles stephensi. La souche de souris Swiss OF1 est particulièrement sensible à P. b. berghei qui produit une infection toujours mortelle.
Les moustiques femelles (80 à 100 individus par préparation) sont débarassés de leurs pattes, ailes et abdomen, puis homogénéisés à 4°C à l'aide d'un potter en verre, dans du milieu M 199 (GIBCO) contenant 10 % de sérum foetal de veau. La suspension de sporozoïtes est ensuite purifiée des débris du moustique par deux centrifugations successives ( 2 min. à 50 g et 5 min. à 200 g) et le surnageant recueilli est conservé à 4°C. Après comptage dans une chambre de Petroff-Hausser, le nombre de parasites est ajusté par dilution avec le même milieu froid, à la densité de 2 x 10⁵ sporozoïtes/ml. L'ensemble de la procédure est toujours effectuée dans un maximum de 35 minutes et permet de préserver la viabilité et l'infectivité des sporozoïtes.
Un volume de 0,5 ml de la suspension contenant 10⁵ sporozoïtes est injectée i.v. aux souris Swiss OF1 femelles de 18 à 22 g utilisées pour les tests thérapeutiques.
Des groupes de 20 à 25 souris infectées comme décrit ci-dessus sont traités en une seule injection intraveineuse de primaquine diphosphate (Pq) ou des dérivés monoacyls et aminoacides de la primaquine sous formes dichlorhydrates (X-Pq) trois heures après l'inoculation des sporozoïtes. Le volume injecté est ajusté en fonction du poids de la souris, à raison de 0,5 ml pour un poids de 25 g. Les composés sont dilués dans du tampon phosphate salin (PBS) pH 7.0 et le pH est ajusté à 7.0. Les souris infectées mais non traitées (5 par groupe) reçoivent le tampon seul et servent à contrôler l'infectivité des sporozoïtes.
Les souris expérimentales sont gardées durant une période de 50 jours. Le développement de la parasitémie est suivi en examinant quotidiennement des frottis de sang, colorés 60 min. au Giemsa à 5 % dans du tampon Sörensen à pH 7,2, à partir du 5ème jour et ce jusqu'au 15ème jour. Le nombre d'animaux infectés peut ainsi être déterminé. Ces résultats permettent d'établir la survie à long terme (LTS, le nombre de souris survivantes non parasitées sur le nombre de souris infectées et traitées).
L'activité prophylactique causale (CPD₅₀) est obtenue par l'analyse des logits de la réponse (exprimée en % de LTS) en fonction de la dose (mg Pq/kg).
Les animaux infectés à l'aide de sporozoïtes de P. berghei sont traités trois heures après avec une seule injection des composés par voie intraveineuse. Ce test permet de définir l'activité prophylactique causale des composés ou la dose permettant de guérir 50 % des animaux infectés (CPD₅₀). La dose est toujours exprimée en mg de Pq diphosphate par kg.

[2] = Acute toxicity after a single i.v. injection in non-infected mice; assay type: in vivo; settings: for LD50 / MTD: mouse, in vivo, iv; for LD50: mice, read-out: dose léthale 50 % (LD₅₀); for MTD: highest dose with weight loss <= 5 % over five days, read-out: dose maximale tolérée (MTD); for toxicité aiguë compared with Pq: qualitative comparison with primaquine
From the text: La toxicité aiguë en fonction de la dose unique administrée est déterminée sur des souris de 18 à 22 g. Une série de dilutions de chaque composé est injectée par voie intraveineuse à des groupes de 10 souris.
^a : les dérivés sont administrés par vote i.v. trois heures après l'inoculation des sporozoïtes. Les concentrations sont toujours exprimées en mg Pq diphosphate/kg. ^b : la dose maximale tolérée est définie code la dose la plus élevée induisant une perte de poids inférieure ou égale & 5 % du poids initial pendant une période de cinq jours suivant l'injection i.v. ^c : dose léthale tuant 50 % des souris en une seule injection i.v. ^d : dose prophylactique causale permettant de guérir 50 % des souris injectées. ^e : index thérapeutique défini par le rapport LD₅₀/CPD₅₀.

[3] = Plasmodium berghei, iv, single i.v. injection 3 h after sporozoite inoculation
[4] = single i.v. injection 3 h after sporozoite inoculation

Compound	index Pq (CPD₅₀ de la Pq/CPD₅₀ du composé) [1]	toxicité aiguë compared with Pq [2]	activité thérapeutique compared with Pq [1]	dose minimale effective [1, 4]	dose totalement curative (100 %) [1, 4]	CPD₅₀ (dose prophylactique causale guérissant 50 % des animaux infectés) [1, 4]	also measured
COc1cc(NC(C)CCCNC(=O)[C@@H](N)CCC(=O)O)c2ncccc2c1 (stereo partly drawn) [L-glutamyl-Pq, N-1-L-glutamyl, N-4-(méthoxy-6-quinolinyl-8) pentadiamine-1,4]	2,2	le moins toxique; also recorded: meilleure réduction de toxicité					ED50 [1, 3]: 8.5 mg/kg; index thérapeutique (LD₅₀/CPD₅₀) [1]: 16,1; LD₅₀ relative to the LD₅₀ of Pq ([2]; fold higher than Pq): 4 x; MTD relative to the MTD of Pq ([2]; fold higher than Pq): 5 x; LD50 ([2]; single i.v. injection): 136 mg/kg; MTD ([2]; single i.v. injection): 124 mg/kg
COc1cc(NC(C)CCCNC(=O)[C@H](CC(C)C)NC(=O)[C@H](C)N)c2ncccc2c1 (stereo partly drawn) [L-leucyl-L-alanyl-Pq, N-1-L-Alanyl-L-Leucyl, N-4-(Méthoxy-6-quinolinyl-8) pentanediamine-1,4]		meilleure réduction de toxicité					
COc1cc(NC(C)CCCNC(=O)[C@H](C)N)c2ncccc2c1 (stereo partly drawn) [L-alanyl-Pq, N-1-L-alanyl, N-4-(méthoxy-6-quinolinyl-8) pentanediamine-1,4]	3,0	meilleure réduction de toxicité; also recorded: moins toxique que la primaquine	presque quatre fois supérieure à celle de la primaquine base	4 mg Pq/kg	9,9 mg Pq/kg	6,3 mg Pq/kg	
COc1cc(NC(C)CCCNC(=O)[C@@H](N)Cc2ccccc2)c2ncccc2c1 (stereo partly drawn) [L-phenylalanyl-Pq, N-1-L-phénylalanyl , N-4(methoxy-6-quinolinyl-8) pentanediamine-1,4]	3,1	voisine de celle de la Pq		1,8 mg Pq/kg	21,3 mg Pq/kg	6,1 mg Pq/kg	
COc1cc(NC(C)CCCNC(=O)[C@@H](N)CCCCN)c2ncccc2c1 (stereo partly drawn) [L-lysyl-Pq]	4,8			1,7 mg Pq/kg	8,2 mg Pq/kg	3,9 mg Pq/kg	plus toxique que la primaquine ([2]; acute toxicity, fold versus primaquine): 3 x; dose minimale toxique ([2]; single i.v. injection): 8,2 mg Pq/kg
L-glutamine	1,9					10 mg Pq/kg	
COc1cc(NC(C)CCCNC(=O)C(C)NC(=O)CCC(=O)O)c2ncccc2c1 [succinyl-L-alanyl-Pq]			nettement moins actifs que la Pq				
COc1cc(NC(C)CCCNC(=O)C(Cc2ccccc2)NC(=O)CCC(=O)O)c2ncccc2c1 [succinyl-L-phenylalanyl-Pq]			nettement moins actifs que la Pq				
COc1cc(NC(C)CCCNC(=O)[C@@H](C)N)c2ncccc2c1 (stereo partly drawn) [D-alanine, N-1-D-alanyl, N-4-(méthoxy-6-quinolinyl-8)pentanediamine-1,4]		très faible toxicité					
COc1cc(NC(C)CCCNC(=O)[C@@H](N)CC(C)C)c2ncccc2c1 (stereo partly drawn) [L-leucyl-Pq, N-1-L-leucyl, N-4-(méthoxy-6-quinolinyl-8)pentanediamine-1,4]	1,2			7,6 mg Pq/kg	30 mg Pq/kg		CPD₅₀ ([1]; single i.v. injection 3 h after sporozoite inoculation, unit printed without mg): 16,2 Pq/kg
COc1cc(NC(C)CCCN)c2ncccc2c1 (stereo not shown) [Pq, 6-méthoxy-8-(4-amino-1-méthylbutylamino)-quinoléine, reference compound]							ED50 [1, 3]: 18.7 mg/kg; minimal effective dose ([1]; Plasmodium berghei, iv, single i.v. injection 3 h after sporozoite inoculation, read-out: dose minimale effective): 10.4 mg/kg; activité thérapeutique ([1]; at 25 mg/kg i.v.): 75%; index thérapeutique (LD₅₀/CPD₅₀) [1]: 1,7; toxicité dès ([2]; dose from which toxicity is seen, i.v.): ≥ 25 mg/kg; LD50 ([2]; single i.v. injection): 31 mg/kg; MTD ([2]; single i.v. injection): 25.7 mg/kg
COc1cc(NC(C)CCCNC(=O)CCCC(=O)O)c2ncccc2c1 (stereo not shown) [glutarryl-Pq]			nettement moins actifs que la Pq				
